Measurements: patent US20190328891A1, “MEDICAL PREPARATION WITH A CARRIER BASED ON HYALURONAN AND/OR DERIVATIVES THEREOF, METHOD OF PREPARATION AND USE THEREOF” (CONTIPRO A.S., priority 2016, published 2019)
Square brackets hold non-standard residues; d marks the D form. Nle = CCCC[C@H](N)C(=O)O

How the values were obtained:
[1] = tested on: injured skin; details: rabbits, alginate bandage containing the peptide; in comparison with Ser-Ile-Lys-Val-Ala-Val and Val-Pro-Val-Ala-Pro-Gly anchored on alginate bandage; cited from earlier work
[2] = tested on: Primary human fibroblasts (NHDF); test: In vitro cell adhesion on the fibre comprising RGD motif; type: cell-based; details: fibre of native HYA with bonded peptide; DiI stained NHDF, 10^5 cells; fluorescent microscope; monitored for 7 days of cultivation (FIG. 6)
Experimental: The fibre of native HYA comprising RGD motif, prepared according to the procedure described in Example 14, and control fibres were cut into 1 cm pieces and transferred onto a non-adhesive panel with 24 wells. Primary human fibroblasts (NHDF) were pre-marked with the fluorescent dye DiI (Exmax/Emmax 549/565) and inoculated, in the amount of 10^5 cells, into the wells filled with the tested samples. Then the panel was shaken by a shaker (5 hrs/160 rpm) to keep the cells in suspension, under cultivation conditions (37° C., 5% CO2). After 24 h of cultivation the fibres were transferred into a well with fresh cultivation medium. Then the cells were observed and detected by fluorescent microscope Nikon Ti-Eclipse with the use of TRITC filter (Exmax/Emmax, 549/565). The fibroblasts proliferation was monitored for 7 days of cultivation.

For “Ser-Ile-Arg-Val-X-Val-X-Pro-Gly (where X=Ala or Gly)”, the epithelization [1] is given as “significantly higher” and the “volume of regenerated tissue” value [1] is given as “larger”.
For “H-Ahx-Ahx-Arg-Gly-Asp-Nle-O-HYA [H-Ahx-Ahx-Arg-Gly-Asp-Nle-OH]”, the “adhesion and proliferation of human dermal fibroblasts on the fibre” value (“adhesion and proliferation” for short) [2] was “did not support the cell adhesion”.
With “H-Arg-Gly-Asp-Gly-Gly-Gly-Nle-O-HYA (H-RGDGGG[Nle]-{O‑hyaluronan}) [H-Arg-Gly-Asp-Gly-Gly-Gly-Nle-OH, RGD peptide linked to native hyaluronan fibre via triglycine linker]” the “adhesion and proliferation” value [2] was “did not support the cell adhesion”.
With “H-Gly-Gly-Gly-Arg-Gly-Asp-Nle-O-HYA (H-GGGRGD[Nle]-{O‑hyaluronan}) [H-Gly-Gly-Gly-Arg-Gly-Asp-Nle-OH, peptide with triglycine and RGD anchored to native hyaluronan fibre]” the “adhesion and proliferation” value [2] was “did not support the cell adhesion”.
